Data as given in patent US8377883B2, “Peptide for anti-angiogenesis and use thereof” (Beijing Institute for Cancer Research, priority 2006, dated 2013).

Test system: mice liver cancer H22 cells
Experiment: Tumor suppression by FpAT and derivative peptides in liver cancer H22 tumor-bearing mouse model (Example 14)
Assay type: in vivo, mice of Kunming strain
Conditions: peptides 50 μg/100 μl PBS/injection, angulus oculi medialis vein daily, 7 times; CTX 80 mg/KG; tumors weighed
Procedure: Ninety 5-week old mice of Kunming strain purchased from Animal Center Of Chinese Academy Of Medical Sciences were inoculated subcutaneously in forelimb with mice liver cancer H22 cells (National Institute for the Control of Pharmaceutical and Biological Products) (5×10^6/100 μl/mouse). On the next day after inoculation, each kind of inoculated cells were divided randomly into […] with 10 mice per group. FpAT (50 μg/100 μl PBS/injection) and 7 kinds of derivative peptides thereof (see Table 5 below for detailed sequence):FpAT-N3d, FpAT-N6d, FpAT-N9d, FpAT-C3d, FpAT-C6d, FpAT-C9d, FpAT-N5d-C4d, and vehicle control (PBS:100 μl/injection) were injected in angulus oculi medialis vein, with CTX (cyclophosphamide) (80 mg/KG) as positive control daily, 7 times in total. The mice were sacrificed by dislocating the neck on the next day after administration was stopped, and the tumors were taken and weighed for a statistical analysis.

| Molecule | tumor suppressing rate [%] |
| --- | --- |
| O=P1(N(CCCl)CCCl)NCCCO1 (centres unmarked) [CTX, cyclophosphamide, reference compound] | 89.9 |
| H2N-Asp-Phe-Leu-Ala-Glu-Gly-COOH (H-DFLAEG-OH; listed as Homo sapiens) [FpAT-N5d-C4d] | 56.4 |
| H2N-Asp-Ser-Gly-Glu-Gly-Asp-COOH (H-DSGEGD-OH; listed as Homo sapiens) [FpAT-C9d] | 34.5 |
| H2N-Asp-Ser-Gly-Glu-Gly-Asp-Phe-Leu-Ala-COOH (H-DSGEGDFLA-OH; listed as Homo sapiens) [FpAT-C6d] | 32.3 |
| H2N-Asp-Ser-Gly-Glu-Gly-Asp-Phe-Leu-Ala-Glu-Gly-Gly-COOH (H-DSGEGDFLAEGG-OH; listed as Homo sapiens) [FpAT-C3d] | 46.7 |
| H2N-Glu-Gly-Asp-Phe-Leu-Ala-Glu-Gly-Gly-Gly-Val-Arg-COOH (H-EGDFLAEGGGVR-OH; listed as Homo sapiens) [FpAT-N3d] | 63.3 |
| H2N-Glu-Gly-Gly-Gly-Val-Arg-COOH (H-EGGGVR-OH; listed as Homo sapiens) [FpAT-N9d] | 34.5 |
| H2N-Phe-Leu-Ala-Glu-Gly-Gly-Gly-Val-Arg-COOH (H-FLAEGGGVR-OH; listed as Homo sapiens) [FpAT-N6d] | 57.6 |
